In patent US9526250B2, “Methods for delaying maturity of crops” (Plant Protectants, LLC, priority 2009, dated 2016):

How the values were obtained:
green lemons = assay: Fruit dipping of green lemons, peel color development (example 1); format: in vivo; conditions: 2 min immersion at 50° F., incubated at 15° C., chart of FIG. 2 (1-8), initial color approx 5.5
From the text: (§1) The invention is further illustrated by the following non-limiting examples. It is to be appreciated that, although each of the exemplary experiments used potassium phosphite, that other salts of phosphorous acid, including without limitation, ammonium, sodium, and/or calcium salts, as well as phosphorous acid itself may also have been used. For examples 1 and 2 below, assessment of citrus fruit peel color was made using the following color grading charts (FIG. 1 for Navels; FIG. 2 for Lemons) in addition to the Dictionary of Color by Maerz and Paul, First Edition (1930). All experiments were conducted in solutions at approximately pH 6, although pH ranges from between about 3 and about 9 are acceptable.
Five different treatments (A-E below) were made. There were four replications for each of the five treatments, with each replicate comprising six fruit pieces. Thus, each treatment was applied to 24 fruit pieces. […]
(§2) After the treatments were applied and left to dry for 10 minutes, all treatments were recorded for peel color using FIG. 2 above and the Dictionary of Color, and rated for color development and photographed. The fruit was placed in humid incubators at 15° C. and monitored weekly for color development. […]

oranges (Navels) = assay: Fruit dipping of oranges at color break, peel color development (example 2); format: in vivo, navel oranges; conditions: 2 min immersion at 50° F., incubated at 15° C., chart of FIG. 1 (1-8), initial color 5.5
From the text: as §1
Five different treatments (A-E below) were made. There were four replications for each of the five treatments, with each replicate comprising six fruit pieces. Thus, each treatment was applied to 24 fruit pieces. The fruit treated in this example were oranges at the color break stage, the fruit being predominantly green with some development of orange color (initial color 5.5). […]
as §2, with “1” for “2”

[1] = system: navel orange tree (variety Cara Cara); assay: Field spray of navel orange trees in situ, fruit color development (example 3); format: in vivo; conditions: Navels on trees, pH about 5-6, assessed approximately 30 days later, chart of FIG. 1
From the text: Five different treatments (T1-T5 below) were made. There were four replications for each of the five treatments, with each replicate comprising one navel orange tree (variety Cara Cara) in situ. Thus, each treatment was applied to 4 different trees. Treatments were all made using a motorized high volume agricultural sprayer and an application volume equivalent to 5000 L/ha (liters/hectare), or approximately 530 gallons/acre. This is approximately equivalent to 12.5 L (3.3 gal)/tree. The trees were sprayed during early color break (late October/early November) with a wetting agent added at 0.01% (v/v).
Treatments were as follows: • T1. Untreated trees=control. • T2. Water solution containing gibberellic acid at 16 ppm. • T3. Water solution containing potassium phosphite (expressed as equivalent amount of phosphorous acid) sprayed at 600 ppm. • T4. A tank water mixture of potassium phosphite (expressed as equivalent amount of phosphorous acid) sprayed at 300 ppm plus gibberellic acid at 16 ppm • T5. […]
The spray tank pH for all the treatments T2-T5 were adjusted with citric acid to a pH of between about 5 and about 6 (in accordance with the manufacturers instructions for gibberellic acid usage), and a small amount of a non ionic wetter added to the tank (0.01% v/v). […] The fruit on the trees were assessed for color development approximately 30 days later, during December. […]

firm green tomatoes = assay: Fruit dipping of firm green tomatoes, peel color development (example 4); format: in vivo; conditions: 2 min immersion at 75° F., incubated at 30° C., USDA chart of FIG. 5, initial 3.5
From the text: For example 4 below, assessment of the tomato peel color was made using the USDA color grading chart (FIG. 5) in addition to the Dictionary of Color.
The color grading chart (FIG. 5) is a reproduction of the “Tomato Color Standards USDA Visual Aid TM-L-1” which consists of a chart containing twelve color photographs illustrating certain color classification requirements. The official USDA chart is incorporated herein by this reference. Table 6 below sets forth approximate cross-references to the Dictionary of Color for the 12 colors of the USDA chart:
In example 4, five different treatments (A-E below) were made. There were four replications for each of the five treatments, with each replicate comprising six fruit pieces. Thus, each treatment was applied to 24 fruit pieces. The fruit treated in this example were firm green tomatoes according to the chart above was 3.5 (initial color 11-C-22) at the onset of color break. Immersion temperatures were approximately 75° F. (24° C.). […]
After the treatments were applied and left to dry for 10 minutes, all treatments were recorded for peel color using the Dictionary of Color and also the USDA Tomato Color Standards Chart (FIG. 5 herein), and rated for color development and photographed. […] (86° F.) and monitored weekly for color development. […]

[2] = gibberellic acid 100 ppm in water

Row | Molecule | Mean Color Rating (green lemons; [2]) [b] | Mean Color Rating (oranges (Navels); [2]) [b] | Mean Color Rating ([1]; gibberellic acid 16 ppm sprayed at 5000 L/ha) [b] | Mean Color Rating (firm green tomatoes; gibberellic acid 100 ppm) [b] | Mean Color Rating (green lemons; 2% (w/w) potassium phosphite) [c] | Mean Color Rating (oranges (Navels); 2% (w/w) potassium phosphite) [bc] | Mean Color Rating ([1]; potassium phosphite 600 ppm (as phosphorous acid) sprayed at 5000 L/ha) [bc] | Mean Color Rating (firm green tomatoes; 2% (w/w) potassium phosphite) [b]
1 | C=C1C[C@]23C[C@@]1(O)CC[C@H]2[C@@]12C=C[C@H](O)[C@@](C)(C(=O)O1)[C@H]2[C@@H]3C(=O)O [Gibberellic acid (GA), gibberellic acid] | 3 | 3.2 | 3.2 | 4.6 |  |  |  | 
2 | potassium phosphite |  |  |  |  | 3.6 | 3.5 | 3.5 | 4.8
